Results on one substance are retold here after US20090306012A1, “THERAPEUTIC PROTOCOLS” (priority 2001, published 2009).

The test system of series [1] is neutrophils. Kind of series: Phase I clinical trial of doxorubicin + HA (HyDox) in advanced cancer: toxicity, neutrophil counts. Type of series: in vivo, patients. Particulars: HA 500 mg/m^2 with Dox 30-60 mg/m^2, three week cycle. An excerpt:
The eligibility criteria, for inclusion in this study, were as follows: Patients must have advanced or metastatic cancer, histologically or cytologically confirmed. Patients were not to have had previous chemotherapy or were to have had no more than one prior chemotherapy regime and were not to have had prior anthracyclines. Patients were to be aged between 18 and 75 years with ambulatory performance status and adequate bone marrow, liver and renal function.
The treatment plan provided that, in the first chemotherapy cycle, patients be randomized to receive Dox alone or Dox plus HA. The converse applied in the second cycle. In the subsequent four cycles, patients received Dox plus HA. This allowed each patient to act as his/her own control in the toxicity analysis in the first two cycles, reducing the possibility of inter-patient variability affecting result interpretation.
Injectable sodium chloride was obtained from Baxter Healthcare, Sydney, Australia, as supplied as a 500 ml infusion bag.
Therefore, the initial dose level was 30 mg/m^2, the next 45 mg/m^2 and the next 60 mg/m^2.

The subject of series [2] is blood cell sub-populations. Nature of the series: In vivo cytotoxicity (III), CMF±HA: bone marrow suppression (blood cell counts). On the set-up: species or system Athymic CBA/WEHI nude female mice. The procedure:
At the experimental end-point, when animals had to be euthanased due to degree of disease progression or when the 6-week treatment regimen was completed, the animals were anesthetized by a 0.1 ml intra-peritoneal injection of Nembutal (60 mg/ml), blood was collected, and the animals killed using cervical dislocation.
Erythrocyte, platelet and white blood cell numbers were estimated by making a 1/50- 1/2000 dilution of blood in mouse tenacity saline and counting on a hemocytometer. A blood smear was made and stained with Giemsa, thereby enabling a relative percentage quantification of neutrophils, lymphocytes, and […]. The total estimation of blood cell sub-populations was compared with published data for mouse blood.

Series [3] in a line: In vivo cytotoxicity (III), CMF±HA: effect of treatment on organ mass. Also noted: species or system Athymic CBA/WEHI nude female mice. Particulars: mouse. The source says:
(§1) Immediately after killing the mouse, the tumor, liver, heart, spleen, bladder, left and right kidneys, uterus, lungs, stomach, intestines, brain and lymph nodes were excised and weighed, and placed in 10% v/v formalin. The tissue was fixed for 16-24 hrs before histological processing. Fixed tissue was dehydrated stepwise to 100% v/v ethanol and embedded in paraffin blocks from which 2-4 μm sections were placed on glass microscope slides. Staining the tissue sections with a hematoxylin nuclear stain and eosin cytoplasmic stain highlighted any pathological features that could indicate treatment toxicity.
The mass of each organ was calculated as a percentage of the overall net bodyweight, and compared to the organ masses of the saline only group.

The nature of series [4]: In vivo cytotoxicity (III), CMF±HA: organ pathology (lungs, liver). On the set-up: species or system Athymic CBA/WEHI nude female mice.
Description: as §1

Series [5] is classed as in vivo. Particulars: 6-week regimen. The procedure:
The overall survival time was calculated as the time (days or weeks) that the animal lived, after the commencement of treatment.

Series [6] has as its system neutrophils. Particulars: human, in vivo.
Description: The 5-FU±HA was given by intravenous administration over one hour on a four week cycle. The initial dose of 5-FU in this study was 450 mg/m^2 daily for three days and the dose of HA 500 mg/m^2 with each administration of 5-FU. Dose escalation occurred in two steps to reach the standard dose of 450 mg/m^2 for five consecutive days with each cycle. Therefore, the initial dose level was 450 mg/r^2 daily for three days, the next 450 mg/m^2 for four days and the final 450 mg/m^2 daily for five days.
[7] abbreviates: HA days 1 and 3 (CMF, where given, days 2 and 4).

Read-outs that look alike come from different tables or passages of the source.

On to hyaluronan [HA], for which the “Effect on known toxicities of Dox in patients” value in series [1] was “does not increase any of the known toxicities of Dox”. In series [2] (setting [7]), the “Erthrocytes (Mean ± SD)” value is 8.78 ± 0.25 × 10^6/ul, the “Lymphocytes/Monocytes (Mean ± SD)” value is listed as 47 ± 2%, the “Neutrophils/eosinophils/basophils (Mean ± SD)” value came to 53 ± 2% and the “Platelets (Mean ± SD)” value is given as 1356 ± 41 × 10^3/ul. Further, the “White Cells (Mean ± SD)” value in series [2] (setting [7]) is recorded as 6.15 ± 0.05 × 10^3/ul. Besides, in series [2] (administered days 1 and 2), the “Erthrocytes (Mean ± SD)” value is given as 8.99 ± 0.13 × 10^6/ul, the “Lymphocytes/Monocytes (Mean ± SD)” value was 47 ± 1%, the “Neutrophils/eosinophils/basophils (Mean ± SD)” value is listed as 53 ± 1% and the “Platelets (Mean ± SD)” value is listed as 1374 ± 7 × 10^3/ul. For the same substance, in series [2] (administered days 1 and 2), the “White Cells (Mean ± SD)” value is 6.15 ± 0.03 × 10^3/ul. The “Spleen mass compared to the untreated control” value in series [3] is given as “significant enlargement of the spleen”. Moreover, the “Liver: % with areas of focal liver necrosis/inflammation” value in series [4] (liver pathology) is recorded as 25% with. Further, the “Lungs: % with oedema and macrophage infiltrate” value in series [4] (lung pathology) is given as 12.5% with. Besides, the “Survival time mean ± SEM” value in series [5] (setting [7]) worked out at 42 ± 0 days. The “Survival time mean ± SEM” value in series [5] (administered days 1 and 2) was 42 ± 0 days. In series [6], the “Effect on known toxicities of 5-FU in patients” value is on record as “does not increase any of the known toxicities of 5-FU”.
